In PubChem BioAssay AID1963985 (Molecular Pharmacology Branch, DTP, NCI, 2024):
pIC50: −log10 of the molar value.

System: 252836-082-R-J2-PDC tumor spheroids, viability
Experiment: Anticancer human tumor 252836-082-R-J2-PDC patient-derived head and neck squamous cell carcinoma cell line growth inhibition [PI3K]
Details: spheroids with HUVEC and MSC; for pIC50: curve of first compound; for viability, T/C: stronger effect = lower value
Source text: Combinatorial screen of targeted agents with the PI3K inhibitors inavolisib, alpelisib, duvelisib, and copanlisib in multi-cell type tumor spheroids
A high-throughput screen of multi-cell type tumor spheroids was designed to identify active combinations of targeted small molecules and PI3K pathway inhibitors. Complex spheroids include a stromal component modeled by human endothelial cells (HUVEC) and fibroblasts modeled by human mesenchymal stem cells (MSCs). The concentration ranges selected for each drug and investigational agent were based upon clinically achievable concentrations if the clinical Cmax of the agent was known.
Compounds. The drugs and investigational agents: inavolisib (NSC800729), alpelisib (NSC765974), duvelisib (NSC772469), copanlisib (NSC816437), ipatasertib (NSC767898), afuresertib (NSC778305), talazoparib (NSC767125), sapanisertib (NSC764658), selumetinib (NSC741078), tovorafenib (DAY101, NSC766906), vemurafenib (NSC761431), ravoxertinib (NSC781343), sotorasib (NSC818433), MRTX1133 (NSC 836407), abemaciclib (NSC 768073), palbociclib (NSC758247), venetoclax (NSC 766270), SY5609 (NSC837396), enzalutamide (NSC755605), and darolutamide (NSC825331), were obtained from the National Cancer Institute (NCI) Developmental Therapeutics Program Chemical Repository. The FDA-approved anticancer drug set is available from the NCI Developmental Therapeutics Program. […] The stock solutions were prepared in dimethyl sulfoxide (DMSO, Sigma-Aldrich, St. Louis, MO, cat. D2650) at 800-fold the tested concentration and stored at -70 degrees C prior to their use. All drugs and investigational agents were tested over a range starting from a high concentration at or near the clinical Cmax and decreasing in half-log increments. If the clinical Cmax for an agent had not been determined, the highest concentration tested was 10 microM.
Cell Culture. All cells were maintained in an incubator at 37 degrees C and 5% CO2 with 95% humidity. The PDC lines were cultured according to standard operating procedures established by the NCI PDMR (https://pdmr.cancer.gov/sops/default.htm). All PDCs were thawed and cultured in Matrigel-coated flasks prepared with a working solution of 1X Ham's F-12 nutrient mix, without supplementation (Invitrogen, Waltham, MA, cat. 11765054), 100 U/mL penicillin-streptomycin (Invitrogen, cat. 15140122), and 2.5% Matrigel (Corning Inc., Corning, NY, cat. 354248) for the first three passages. The 354836-022-R-J1-PDC, 475296-252-R-J1-PDC, and 997726-040-R-J2-PDC lines were cultured in 6A media, which includes advanced DMEM/F-12 (Thermo Fisher Scientific, cat. 12634028), 10 mM HEPES (Thermo Fisher Scientific, cat. 15630080), 1X GlutaMAX supplement (Thermo Fisher Scientific, cat. 35050061), 0.1 mg/mL primocin (InvivoGen, San Diego, CA, cat. ant-pm-2), 10% defined fetal bovine serum, heat inactivated (HyClone Laboratories Inc., Logan, UT, cat. SH30070.03HI), 50% L-WRN conditioned media (ATCC, cat. CRL-3276), 1.25 mM N-Acetyl-L-cysteine (Sigma-Aldrich, cat. A9165), 10 mM nicotinamide (Sigma-Aldrich, cat. N0636), 1X B-27 supplement (Thermo Fisher Scientific, cat. 17504044), 1X N-2 supplement (Thermo Fisher Scientific, cat. 17502048), and 10 microM Y-27632 dihydrochloride (Tocris Bioscience, Bristol, United Kingdom, cat. 1254). The 624824-186-R-J2-PDC line was cultured in 6C/Colon 1B media, which includes all 6A media components plus 50 ng/mL human EGF recombinant protein (Thermo Fisher Scientific, cat. PHG0311). […]
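Also: spheroids exposed to agents for seven days before readout.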
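For viability, T/C in this document: percent of vehicle DMSO control viability so 100% = untreated growth.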

Compound: CCN1CCN(Cc2ccc(Nc3ncc(F)c(-c4cc(F)c5nc(C)n(C(C)C)c5c4)n3)nc2)CC1 + Cc1nc(NC(=O)N2CCCC2C(N)=O)sc1-c1ccnc(C(C)(C)C(F)(F)F)c1
- pIC50 (second compound 0.0316 µM): < 6.00
- pIC50 (second compound 0.1 µM): < 6.00
- pIC50 (second compound 0.316 µM): < 6.00
- pIC50 (second compound 1 µM): < 6.00
- pIC50 (second compound 3.16 µM): > 8.50
- pIC50 (second compound 10 µM): > 8.50
- viability, T/C (second compound 0.0316 µM, first compound 0.00316 µM): 101%
- viability, T/C (second compound 0.0316 µM, first compound 0.01 µM): 94.1%
- viability, T/C (second compound 0.0316 µM, first compound 0.0316 µM): 80.8%
- viability, T/C (second compound 0.0316 µM, first compound 0.1 µM): 80.5%
- viability, T/C (second compound 0.0316 µM, first compound 0.316 µM): 91.3%
- viability, T/C (second compound 0.0316 µM, first compound 1 µM): 87%
- viability, T/C (second compound 0.1 µM, first compound 0.00316 µM): 84.2%
- viability, T/C (second compound 0.1 µM, first compound 0.01 µM): 85%
- viability, T/C (second compound 0.1 µM, first compound 0.0316 µM): 77.8%
- viability, T/C (second compound 0.1 µM, first compound 0.1 µM): 80.2%
- viability, T/C (second compound 0.1 µM, first compound 0.316 µM): 85.7%
- viability, T/C (second compound 0.1 µM, first compound 1 µM): 86.3%
- viability, T/C (second compound 0.316 µM, first compound 0.00316 µM): 67.8%
- viability, T/C (second compound 0.316 µM, first compound 0.01 µM): 74.8%
- viability, T/C (second compound 0.316 µM, first compound 0.0316 µM): 64.7%
- viability, T/C (second compound 0.316 µM, first compound 0.1 µM): 69.9%
- viability, T/C (second compound 0.316 µM, first compound 0.316 µM): 59%
- viability, T/C (second compound 0.316 µM, first compound 1 µM): 68%
- viability, T/C (second compound 1 µM, first compound 0.00316 µM): 58.3%
- viability, T/C (second compound 1 µM, first compound 0.01 µM): 74.9%
- viability, T/C (second compound 1 µM, first compound 0.0316 µM): 59.4%
- viability, T/C (second compound 1 µM, first compound 0.1 µM): 61.9%
- viability, T/C (second compound 1 µM, first compound 0.316 µM): 62.5%
- viability, T/C (second compound 1 µM, first compound 1 µM): 46.4%
- viability, T/C (second compound 3.16 µM, first compound 0.00316 µM): 49.1%
- viability, T/C (second compound 3.16 µM, first compound 0.01 µM): 39.4%
- viability, T/C (second compound 3.16 µM, first compound 0.0316 µM): 43.5%
- viability, T/C (second compound 3.16 µM, first compound 0.1 µM): 40.2%
- viability, T/C (second compound 3.16 µM, first compound 0.316 µM): 44.2%
- viability, T/C (second compound 3.16 µM, first compound 1 µM): 43.1%
- viability, T/C (second compound 10 µM, first compound 0.00316 µM): 35.4%
- viability, T/C (second compound 10 µM, first compound 0.01 µM): 42.1%
- viability, T/C (second compound 10 µM, first compound 0.0316 µM): 27.5%
- viability, T/C (second compound 10 µM, first compound 0.1 µM): 40.1%
- viability, T/C (second compound 10 µM, first compound 0.316 µM): 32%
- viability, T/C (second compound 10 µM, first compound 1 µM): 21.1%
